Legend:
Assay type in all cases: in vivo
[1] = test system: Abutilon theophrasti; assay: Pre-emergence herbicidal activity, glasshouse pot test; conditions: pre-emergence spray, rate 1000 g/ha, evaluated after 13 days, scale 0-5
Method in brief: (§1)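 Sown pots sprayed pre-emergence (day 1), acetone/water + 0.5% Tween 20 vehicle. Damage rated 0–5 at 13 days.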

[2] = test system: Alopecurus myosuroides; assay: as above; conditions: pre-emergence spray, rate 1000 g/ha, evaluated after 13 days, scale 0-5
Method in brief: as §1

[3] = test system: Amaranthus retroflexus; assay: as above; conditions: pre-emergence spray, rate 1000 g/ha, evaluated after 13 days, scale 0-5
Method in brief: as §1

[4] = test system: Echinochloa crus-galli; assay: as above; conditions: pre-emergence spray, rate 1000 g/ha, evaluated after 13 days, scale 0-5
Method in brief: as §1

[5] = test system: Setaria faberi; assay: as above; conditions: pre-emergence spray, rate 1000 g/ha, evaluated after 13 days, scale 0-5
Method in brief: as §1

[6] = test system: zea mays; assay: as above; conditions: pre-emergence spray, rate 1000 g/ha, evaluated after 13 days, scale 0-5
Method in brief: as §1

[7] = test system: Abutilon theophrasti; assay: Post-emergence herbicidal activity, glasshouse pot test; design: key: 0 = no damage to plant, 5 = total damage to plant; conditions: Application post-emergence, rate 1000 g/ha, evaluated after 13 days
Method in brief: (§2)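 Damage rated 0 (none) to 5 (total) 13 days after spraying. Plants were treated post-emergence at 8 days after sowing, using an acetone/water (50:50) formulation with 0.5% Tween 20 diluted to an aqueous spray.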

[8] = test system: Alopecurus myosuroides; assay: as above; design: key: 0 = no damage to plant, 5 = total damage to plant; conditions: Application post-emergence, rate 1000 g/ha, evaluated after 13 days
Method in brief: as §2

[9] = test system: Amaranthus retroflexus; assay: as above; design: key: 0 = no damage to plant, 5 = total damage to plant; conditions: Application post-emergence, rate 1000 g/ha, evaluated after 13 days
Method in brief: as §2

[10] = test system: Echinochloa crus-galli; assay: as above; design: key: 0 = no damage to plant, 5 = total damage to plant; conditions: Application post-emergence, rate 1000 g/ha, evaluated after 13 days
Method in brief: as §2

[11] = test system: Setaria faberi; assay: as above; design: key: 0 = no damage to plant, 5 = total damage to plant; conditions: Application post-emergence, rate 1000 g/ha, evaluated after 13 days
Method in brief: as §2

[12] = test system: zea mays; assay: as above; design: key: 0 = no damage to plant, 5 = total damage to plant; conditions: Application post-emergence, rate 1000 g/ha, evaluated after 13 days
Method in brief: as §2

SMILES | ABUTH damage score, application pre-emergence [1] | ALOMY damage score, application pre-emergence [2] | AMARE damage score, application pre-emergence [3] | ECHCG damage score, application pre-emergence [4] | SETFA damage score, application pre-emergence [5] | ZEAMX damage score, application pre-emergence [6] | ABUTH herbicidal damage score [7] | ALOMY herbicidal damage score [8] | AMARE herbicidal damage score [9] | ECHCG herbicidal damage score [10] | SETFA herbicidal damage score [11] | ZEAMX herbicidal damage score [12]
COC1=C(C)C(O)N(c2cc3c(cn2)CCCC3)C1=O (stereo not drawn) [AI7] | 1 | 2 | 3 | 5 | 5 | 0 | 4 | 3 | 3 | 5 | 5 | 1
CCN(CC)C(=O)c1cnc(N2C(=O)C(OC)=C(C)C2O)cc1C(F)(F)F (stereo not drawn) [AI9] | 5 | 4 | 5 | 5 | 4 | 3 | 5 | 5 | 5 | 5 | 5 | 4
C#CCNC(=O)c1cnc(N2C(=O)C(OC)=C(C)C2O)cc1C(F)(F)F (stereo not drawn) [AI10] | 5 | 4 | 5 | 5 | 5 | 4 | 4 | 5 | 5 | 5 | 5 | 5
COC1=C(C)C(O)N(c2cc(C(F)(F)F)c(C(=O)N(C)C)cn2)C1=O (stereo not drawn) [AI11] | 5 | 4 | 5 | 4 | 4 | 4 | 5 | 5 | 5 | 5 | 5 | 4
COC1=C(C)C(O)N(c2cc(C(F)(F)F)c(C(=O)N(C)OC)cn2)C1=O (stereo not drawn) [AI12] | 5 | 4 | 5 | 4 | 4 | 4 | 5 | 5 | 5 | 5 | 5 | 5
COC1=C(C)C(O)N(c2cc(C(F)(F)F)c(-c3cncnc3)cn2)C1=O (stereo not drawn) [AI13] | 2 | 3 | 4 | 3 | 2 | 3 | 5 | 5 | 5 | 5 | 5 | 4
COC1=C(C)C(O)N(c2cc(C(F)(F)F)c(-c3cnc(OC)nc3)cn2)C1=O (stereo not drawn) [AI14] | 1 | 2 | 5 | 2 | 3 | 1 | 5 | 4 | 5 | 5 | 5 | 3
COC1=C(C)C(O)N(c2cc(C(F)(F)F)c(OC)cn2)C1=O (stereo not drawn) [AI15] | 2 | 4 | 5 | 4 | 5 | 3 | 5 | 5 | 5 | 5 | 5 | 4
COC1=C(C)C(O)N(c2cc(C(F)(F)Cl)ccn2)C1=O (stereo not drawn) [AI16] | 1 | 3 | 5 | 5 | 5 | 2 | 5 | 4 | 5 | 5 | 5 | 3
COC1=C(C)C(O)N(c2cc(C(C)F)ccn2)C1=O (stereo not drawn) [AI17] | 5 | 4 | 5 | 5 | 5 | 4 | 5 | 5 | 5 | 5 | 5 | 3
CCOC(=O)c1cnc(N2C(=O)C(OC)=C(C)C2O)cc1Cl (stereo not drawn) [AI19] | 0 | 1 | 2 | 2 | 1 | 0 | 4 | 1 | 5 | 3 | 5 | 1
CCc1cc(N2C(=O)C(OC)=C(C)C2O)ncc1Br (stereo not drawn) [AI22] | 1 | 3 | 5 | 4 | 2 | 1 | 4 | 4 | 5 | 5 | 5 | 1
COC1=C(C)C(O)N(c2cc(F)ccn2)C1=O (stereo not drawn) [AI23] | 1 | 3 | 5 | 5 | 4 | 1 | 5 | 5 | 5 | 5 | 5 | 3
COC1=C(C)C(O)N(c2ccc(C(=O)NC(C)(C)C)cn2)C1=O (stereo not drawn) [AI24] | 4 | 3 | 5 | 4 | 4 | 1 | 4 | 4 | 5 | 5 | 5 | 4
COC1=C(C)C(O)N(c2ccc(C(=O)NC(C)(C)C#N)cn2)C1=O (stereo not drawn) [AI25] | 4 | 4 | 5 | 3 | 4 | 2 | 5 | 5 | 5 | 5 | 5 | 3
COC1=C(C)C(O)N(c2ccc(NC(=O)C(C)(C)C)cn2)C1=O (stereo not drawn) [AI26] | 5 | 4 | 5 | 5 | 5 | 2 | 5 | 5 | 5 | 5 | 5 | 5

From patent publication US9963445B2, “Chemical compounds” (SYNGENTA PARTICIPATIONS AG, priority 2013, dated 2018)
